Literature values as cited in EP2681209B1, “COMPOUNDS AND METHODS FOR THE TREATMENT OF PAIN AND OTHER DISORDERS” (Aquilus Pharmaceuticals, Inc, priority 2011, dated 2012).

Key:
TNF-alpha = settings: background literature; cited from earlier work
MMP-9 = MMP-9 (Homo sapiens, UniProt P14780); settings: background literature; cited from earlier work
MMP-9, sequence (P14780 94-707, species assumed): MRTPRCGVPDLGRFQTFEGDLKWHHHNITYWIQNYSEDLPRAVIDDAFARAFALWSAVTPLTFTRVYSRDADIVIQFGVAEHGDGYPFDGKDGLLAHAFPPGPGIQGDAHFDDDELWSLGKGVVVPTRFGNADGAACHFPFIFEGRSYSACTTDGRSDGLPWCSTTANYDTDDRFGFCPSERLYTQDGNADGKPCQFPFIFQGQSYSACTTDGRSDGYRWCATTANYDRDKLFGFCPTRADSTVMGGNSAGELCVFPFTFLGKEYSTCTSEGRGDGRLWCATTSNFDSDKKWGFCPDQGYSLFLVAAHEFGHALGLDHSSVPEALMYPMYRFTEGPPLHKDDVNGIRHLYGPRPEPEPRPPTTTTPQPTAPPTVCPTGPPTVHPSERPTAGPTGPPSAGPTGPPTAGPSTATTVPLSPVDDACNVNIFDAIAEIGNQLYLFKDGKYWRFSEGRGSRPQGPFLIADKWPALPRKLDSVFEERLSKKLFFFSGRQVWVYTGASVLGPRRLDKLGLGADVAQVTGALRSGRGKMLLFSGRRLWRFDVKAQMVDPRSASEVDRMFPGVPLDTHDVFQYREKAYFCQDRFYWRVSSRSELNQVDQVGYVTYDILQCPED

## CC(C)C[C@H](CC(=O)NO)C(=O)N[C@@H](Cc1ccc2ccccc2c1)C(=O)N[C@@H](C)C(N)=O [TAPI-0]
TNF-alpha
  IC50: ~100 nM
MMP-9
  IC50: 0.5 nM
